Values quoted from earlier work, collected in US12121516B2, “Pharmaceutical composition comprising selexipag” (ACTELION PHARMACEUTICALS LTD, priority 2017, dated 2024).

Assays:
healthy subjects = settings: administered orally or by i.v. infusion
[1] = system: patients with pulmonary arterial hypertension; settings: phase III, versus placebo

In the case of `CC(C)N(CCCCOCC(=O)NS(C)(=O)=O)c1cnc(-c2ccccc2)c(-c2ccccc2)n1` [selexipag, 2-{4-[N-(5,6-diphenylpyrazin-2-yl)-N-isopropylamino]butyloxy}-N-(methylsulfonyl)acetamide], the tolerability (healthy subjects) is listed as “generally well tolerated” and the “risk of the primary composite end point of death or a complication related to pulmonary arterial hypertension” value [1] is listed as “significantly lower”.
